Data: patent US10017535B2, “Amphiphilic compounds with neuroprotective properties” (USTAV ORGANICKE CHEMIE A BIOCHEMIE AV CR, v.v.i., priority 2014, dated 2018)
Counter-ions that a name gives are not always drawn. Like-named read-outs stand apart in the source and are kept apart here.

How the values were obtained:
[1] = molecular target: T1, NR1-1a/NR2B NMDA receptor (Rattus norvegicus, UniProt P35439+Q00960); assay: Patch-clamp inhibition of glutamate-evoked currents at recombinant NMDA receptors in transfected HEK293 cells; format: cell-based
T1 construct: expressed in transfected cells; host or cells: HEK293 cells (ATCC CRL1573)
T1 sequence (Q00960 27-1482, other chains not shown): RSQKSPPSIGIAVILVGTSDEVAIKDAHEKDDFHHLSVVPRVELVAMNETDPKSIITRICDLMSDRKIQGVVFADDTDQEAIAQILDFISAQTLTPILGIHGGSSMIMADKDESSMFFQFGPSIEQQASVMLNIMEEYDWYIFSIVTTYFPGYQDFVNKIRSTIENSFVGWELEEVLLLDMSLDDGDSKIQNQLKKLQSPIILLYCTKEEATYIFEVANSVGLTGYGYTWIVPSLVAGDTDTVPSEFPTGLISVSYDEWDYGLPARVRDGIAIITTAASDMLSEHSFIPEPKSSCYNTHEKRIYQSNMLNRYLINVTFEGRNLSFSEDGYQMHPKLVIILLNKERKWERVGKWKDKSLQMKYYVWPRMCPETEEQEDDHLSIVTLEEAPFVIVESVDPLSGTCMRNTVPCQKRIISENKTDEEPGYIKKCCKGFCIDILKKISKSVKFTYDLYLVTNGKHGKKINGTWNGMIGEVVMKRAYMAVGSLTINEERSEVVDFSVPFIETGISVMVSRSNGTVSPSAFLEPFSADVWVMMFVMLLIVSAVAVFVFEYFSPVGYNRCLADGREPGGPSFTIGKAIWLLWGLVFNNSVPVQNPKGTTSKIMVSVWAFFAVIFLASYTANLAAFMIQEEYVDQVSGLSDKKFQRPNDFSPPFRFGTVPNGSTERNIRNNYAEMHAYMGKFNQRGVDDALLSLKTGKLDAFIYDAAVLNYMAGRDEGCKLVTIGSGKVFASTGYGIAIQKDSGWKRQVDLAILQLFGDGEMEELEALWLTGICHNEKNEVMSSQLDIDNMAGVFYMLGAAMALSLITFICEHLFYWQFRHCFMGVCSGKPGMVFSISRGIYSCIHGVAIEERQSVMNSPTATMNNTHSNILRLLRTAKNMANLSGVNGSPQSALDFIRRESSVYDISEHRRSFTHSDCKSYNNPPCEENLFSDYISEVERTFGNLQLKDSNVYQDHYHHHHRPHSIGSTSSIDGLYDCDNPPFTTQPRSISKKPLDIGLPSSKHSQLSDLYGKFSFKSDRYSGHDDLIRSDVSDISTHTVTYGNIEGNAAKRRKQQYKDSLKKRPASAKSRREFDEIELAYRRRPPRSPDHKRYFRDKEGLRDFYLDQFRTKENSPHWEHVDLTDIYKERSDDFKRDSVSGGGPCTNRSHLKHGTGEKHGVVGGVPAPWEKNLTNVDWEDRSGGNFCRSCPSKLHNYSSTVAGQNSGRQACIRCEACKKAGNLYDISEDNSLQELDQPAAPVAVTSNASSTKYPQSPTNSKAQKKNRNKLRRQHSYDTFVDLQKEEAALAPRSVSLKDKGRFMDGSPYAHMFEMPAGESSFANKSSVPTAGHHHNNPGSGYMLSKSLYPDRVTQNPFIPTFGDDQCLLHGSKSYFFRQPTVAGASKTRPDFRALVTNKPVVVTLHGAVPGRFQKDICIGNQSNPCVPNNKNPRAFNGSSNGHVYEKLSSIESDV
Description: Transfected cells were identified by means of fluorescent green protein (GFP) fluorescence. Its genus was transfected together with the both receptor subunit genes.
Steroid-containing solutions were prepared from fresh solution (20 mmol·l^−1, of steroid dissolved in dimethyl sulfoxide, DMSO), which was added to the extracellular solution containing 1 mmol·l^−1 glutamic acid and 10 μmol·l^−1 of glycine. Identical concentrations of DMSO were added to all other extracellular solutions.
Current responses produced by extracellular application of glutamic acid solution (1 mmol·l^−1) were measured from the whole cell by patch-clamp technique, which is used for the study of transport of charged particles through model and also natural biological membranes. The currents were measured at membrane potential maintained at −60 mV and +60 mV.
Same amounts (0.3 μg) of cDNA coding NR1, NR2 and GFP (green fluorescent protein) (pQBI 25, Takara, Japan) were mixed with 0.9 μl of Matra-A Reagent (IBA, Göttingen, Germany) and added to confluent HEK293 cells cultivated in v 24-pit cultivating plate. After trypsination, the cells were re-suspended in Opti-MEM® I containing 1% fetal bovine serum. Subsequently, 20 mmol·l^−1 MgCl2, 1 mmol l^−1 D,L-2-amino-5-phosphonopentanoic acid, 3 mmol·l^−1 kynurenic acid was added to the mixture and cells were inoculated on the polylysine-coated glass plates having 25 mm in diameter. The following genes coding NMDA receptor subunits were used for transfection: NR1-1 a (GenBank accession No. U08261) and NR2B (GenBank accession No. M91562).
HEK293 Cultured cells were used for electrophysiological investigations with a latency of 16-40 h after transfection. Whole-cell currents were measured by patch-clamp amplifier (Axopatch 1D; Axon Instruments, Inc. Foster City, USA) after capacitance and serial resistance (<10 MΩ) compensation to 80-90%. Agonist-induced responses were filtered to 1 kHz (8-pole Bessel filter; Frequency Devices, Haverhill, USA), digitized with sampling frequency of 5 kHz and analyzed by pClamp version 9 software (Axon Instruments, USA). […] Extracellular solution (ECS) contained 160 mmol·l^−1 sodium chloride, 2.5 mmol·l^−1 potassium chloride, 10 mmol·l^−1 HEPES, 10 mmol·l^−1 glucose, 0.2 mmol·l^−1 EDTA a 0.7 mmol·l^−1 calcium chloride (pH adjusted to 7.3 by sodium hydroxide solution). Glycine was added to both testing and control solution. Moreover, bicuculline (10 μmol·l^−1) and tetrodotoxin (0.5 μmol·l^−1) was added to hippocampal cultures. Steroid-containing solutions were prepared from fresh solution (20 mmol·l^−1) of steroid dissolved in dimethyl sulfoxide (DMSO). Same concentrations of DMSO were used in all extracellular solutions. Control and experimental solutions were applied via microprocessor-controlled perfusion system with approx. rate of solution exchange in areas adjacent to cells reaching ˜10 ms.
Current responses produced by 100 μmol·l^−1 of NMDA (in the case of hipocampal neurones), or by 1 mmol·l^−1 of glutamate (on recombinant NMDA receptors) were measured at membrane potential maintained at −60 mV. […] Relative effect of steroid-induced inhibition was used for calculating IC50.

[2] = HEK293, read-out: Mean % change ± SD
[3] = calculated from relative steroid-induced inhibition, Hill's coefficient 1.2, read-out: IC50

SMILES | melting point | IC50 [1, 3] [µM] | other results
C[C@H]1CC[C@H]2[C@@H]3CC[C@@H]4C[C@H](NC(=O)C(=O)[O-])CC[C@]4(C)[C@H]3CC[C@]12C.[Na+] [Compound 138, Sodium 2-oxo-2-(((3R,5R,8S,9S,10S,13R,14S,17S)-10,13,17-trimethylhexadecahydro-1H-cyclopenta[a]phenanthren-3-yl)amino)acetate] | 330 to 334.6 °C | 3.7 | inhibition at 1 µM [1, 2]: 17.5 ± 1.8%
CC[C@@H](C)C1CC[C@H]2[C@@H]3CC[C@@H]4C[C@H](NC(=O)CC(=O)O)CC[C@]4(C)[C@H]3CC[C@]12C (stereo partly drawn) [Compound 149, 3-(((3R,5R,8R,9S,10S,13R,14S)-17-((R)-Sec-butyl)-10,13-dimethylhexadecahydro-1H-cyclopenta[a]phenanthren-3-yl)amino)-3-oxopropanoic acid] | 163 to 165 °C | 18.3 | inhibition at 10 µM [1, 2]: 33.6 ± 6.1%
C[C@@]12CCC[C@H]1[C@@H]1CC[C@@H]3C[C@H](NC(=O)CC(=O)O)CC[C@]3(C)[C@H]1CC2 [Compound 61] | 126 to 128 °C |  | IC50 [1]: 15.4 µM; inhibition at 10 µM [1, 2]: 40 ± 5.7%
C[C@@H]1CC[C@H]2[C@@H](CC[C@@H]3C[C@H](OC(=O)CCC(=O)O)CC[C@@]32C)C1 [Compound 34, 4-(((2R,4aS,4bS,7R,8aS,10aR)-4a,7-Dimethyltetradecahydrophenanthren-2-yl)oxy)-4-oxobutanoic acid] | 119 to 121 °C | 23.2 | inhibition at 10 µM ([1]; HEK293, steroid concentration 10 μmol·l^−1, 1 mmol·l^−1 glutamate, −60 mV, read-out: Mean % change ± SD): 27 ± 10%
C[C@H]1CC[C@H]2[C@@H]3CC[C@@H]4C[C@H](NC(=O)CC(=O)O)CC[C@]4(C)[C@H]3CC[C@]12C [Compound 140, 3-Oxo-3-(((3R,5R,8S,9S,10S,13R,14S,17S)-10,13,17-trimethylhexadecahydro-1H-cyclopenta[a]phenanthren-3-yl)amino)propanoic acid] | 147.8 to 149.4 °C | 3.9 | inhibition at 1 µM [1, 2]: 17.8 ± 6.5%
C=C(C)[C@H]1CC[C@H]2[C@@H]3CC[C@@H]4C[C@H](OC(=O)CC(=O)O)CC[C@]4(C)[C@H]3CC[C@]12C [Compound 88, 3-(((3R,5R,8R,9S,10S,13S,14S,17R)-10,13-Dimethyl-17-(prop-1-en-2-yl)hexadecahydro-4H-cyclopenta[a]phenanthren-3-yl)oxy)-3-oxopropanoic acid] | 147.7 to 148.3 °C | 11.8 | inhibition at 10 µM [1, 2]: 46 ± 0.9%
COC[C@@]1(C)CC[C@H]2[C@@H](CC[C@@H]3C[C@H](OC(=O)CCC(=O)O)CC[C@@]32C)C1 [Compound 45, 4-(((2R,4aS,4bS,7S,8aS,10aR)-7-(Methoxymethyl)-4a,7-dimethyltetradecahydrophenanthren-2-yl)oxy)-4-oxobutanoic acid] | 107 to 109 °C |  | 
C=C1C[C@H]2[C@@H]3CC[C@@H]4C[C@H](OC(=O)CCC(=O)O)CC[C@]4(C)[C@H]3CC[C@]2(C)C1 | 165 to 165.7 °C |  | 
C[C@@]12CCC[C@H]1[C@@H]1CC[C@@H]3C[C@H](NC(=O)C(=O)O)CC[C@]3(C)[C@H]1CC2 [Compound 59, 2-(((3R,5R,8S,9S,10S,13S,14S)-10,13-Dimethylhexadecahydro-1H-cyclopenta[a]phenanthren-3-yl)amino)-2-oxoacetic acid] | 191 to 193 °C | 23.2 | inhibition at 10 µM [1, 2]: 32 ± 5%
C=C1CC[C@H]2[C@@H]3CC[C@@H]4C[C@H](OC(=O)C[N+](C)(C)C)CC[C@]4(C)[C@H]3CC[C@]12C (as salt: chloride) [Compound 76, 2-(((3R,5R,8R,9S,10S,13S,14S)-10,13-Dimethyl-17-methylenehexadecahydro-1H-cyclopenta[a]phenanthren-3-yl)oxy)-N,N,N-trimethyl-2-oxoethan-1-ammonium chloride] | 175 to 177 °C |  | 
C[C@]12CC[C@@H](CC(=O)O)C[C@H]1CC[C@@H]1[C@@H]2CC[C@]2(C)C(=O)CC[C@@H]12 [Compound 74, 2-((3R,5R,8R,9S,10S,13S,14S)-10,13-Dimethyl-17-oxohexadecahydro-1H-cyclopenta[a]phenanthren-3-yl)acetic acid] | 130 to 133 °C | 38.7 | inhibition at 50 µM [1, 2]: 58.6 ± 9.3%
C[C@]12CC[C@@H](OC(=O)CCC(=O)O)C[C@H]1CC[C@H]1CCCC[C@@H]12 [Compound 9, 4-(((2R,4aS,4bS,8aR,10aR)-4a-Methyltetradecahydrophenanthren-2-yl)oxy)-4-oxobutanoic Acid] | 131 to 133 °C |  | 
CC[C@@H](C)C1CC[C@H]2[C@@H]3CC[C@@H]4C[C@H](NC(=O)C(=O)[O-])CC[C@]4(C)[C@H]3CC[C@]12C.[Na+] (stereo partly drawn) [Compound 148, Sodium 2-(((3R,5R,8R,9S,10S,13R,14S)-17-((R)-sec-butyl)-10,13-dimethylhexadecahydro-1H-cyclopenta[a]phenanthren-3-yl)amino)-2-oxoacetate] | 182 to 184 °C (dec.) | 9.4 | inhibition at 1 µM [1, 2]: 7.3 ± 3%
C[C@@]12CCC[C@H]1[C@@H]1CC[C@@H]3C[C@H](OC(=O)CCC[N+](C)(C)C)CC[C@]3(C)[C@H]1CC2 (as salt: chloride) [Compound 62, 4-(((3R,5R,8S,9S,10S,13S,14S)-10,13-Dimethylhexadecahydro-1H-cyclopenta[a]-phenanthren-3-yl)oxy)-N,N,N-trimethyl-4-oxobutan-1-ammonium chloride] | 225 to 227 °C |  | 
C=C1CC[C@H]2[C@@H]3CC[C@@H]4C[C@H](OC(=O)CCCCC(=O)O)CC[C@]4(C)[C@H]3CC[C@]12C | 100 to 102 °C |  | 
C[C@@H]1CC[C@H]2[C@@H](CC[C@@H]3C[C@H](OS(=O)(=O)O)CC[C@@]32C)C1 (as salt: salt) [Compound 35, Pyridinium (2R,4aS,4bS,7R,8aS,10aR)-4a,7-dimethyltetradecahydrophenanthren-2-yl 2-sulfate] | 147 to 149 °C |  | 
CC12CCCCC1C1CCC3CC(OS(=O)(=O)O)CCC3(C)C1CC2 (as salt: salt) [Compound 101, Pyridinium (2R,4aS,4bS,6aS,10bS,6aS,12aR)-4a,6a-dimethyloctadecahydrochrysen-2-yl 2-sulfate] | 173 to 174 °C |  | 
COC(=O)C1(C)CCC2C(CCC3CC(OS(=O)(=O)O)CCC32C)C1C (as salt: salt) [Compound 22, Pyridinium (2R,4aS,7S,8S,10aR)-7-(methoxycarbonyl)-4a,7,8-trimethyltetra-decahydrophenanthren-2-yl 2-sulfate] | 145 to 147 °C |  | 
